For 25 compounds, IC50 results are on record in patent US10815247B2, “Functionalized NANOLUC inhibitors” (PROMEGA CORPORATION, priority 2016, dated 2020).

The target of the first experiment is NanoLuc (Oplophorus gracilirostris, UniProt Q9GV45, A31E/A60N/A81I/F95D/I117V/K70R/L54V/L99Q/M102K/N193R/P142E/Q151K/Q38R/Q45L/V71I/Y165I). The experiment can be described thus: Inhibitor IC50 determination. It counts as biochemical.
NanoLuc, sequence (Q9GV45 28-196 with tags or gaps with the stated changes limits assumed): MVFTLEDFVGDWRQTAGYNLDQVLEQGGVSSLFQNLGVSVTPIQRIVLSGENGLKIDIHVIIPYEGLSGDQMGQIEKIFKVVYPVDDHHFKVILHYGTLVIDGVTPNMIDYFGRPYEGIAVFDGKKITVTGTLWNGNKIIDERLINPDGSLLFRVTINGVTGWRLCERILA
Conditions: not given
As to the method: The following example provides the IC50 values for the compounds disclosed herein. NANOLUC® enzyme was diluted to 0.4 ng/ml in CO2 independent media+10% FBS to make the detection reagent. A 3× dilution series of each inhibitor was then made in the detection reagent. A “no inhibitor” control was also made for each sample. 50 ul of each inhibitor dilution was mixed with 50 ul of NanoGlo® buffer containing 20 μM furimazine (final furimazine concentration is 10 μM, which is at Km.), and luminescence was measured. Each sample was normalized to the “no inhibitor” control. The IC50 values were then determined using GraphPad Prism (log[inhibitor] vs. normalized response).
Turning to `CCN(C(=O)Cn1c(C(=O)N[C@H]2CC[C@H](C(=O)NCCCCCCNC(=O)c3ccc4c(c3)C(=O)OC43c4ccc(O)cc4Oc4cc(O)ccc43)CC2)cc2sccc21)c1cccc(C)c1` [JRW-0200, N-(trans-4-((6-(3′,6′-dihydroxy-3-oxo-3H-spiro[isobenzofuran-1,9′-xanthene]-5-carboxamido)hexyl)carbamoyl)cyclohexyl)-4-(2-(ethyl(m-tolyl)amino)-2-oxoethyl)-4H-thieno[3,2-b]pyrrole-5-carboxamide], half-maximal inhibition (IC50) was put at 0.049 µM.

With `CCN(C(=O)Cn1c(C(=O)N[C@H]2CC[C@H](C(=O)OC)CC2)cc2sccc21)c1cccc(CBr)c1` [JRW-0466, methyl trans-4-(4-(2-((3-(bromomethyl)phenyl)(ethyl)amino)-2-oxoethyl)-4H-thieno[3,2-b]pyrrole-5-carboxamido)cyclohexane-1-carboxylate], the IC50 (as a rule, the midpoint of a concentration-inhibition curve) amounted to 0.0021 µM.

Take `CCN(C(=O)Cn1c(C(=O)N[C@H]2CC[C@H](C(=O)NCCCCCC(=O)NCCOCCOCCC(=O)ON3C(=O)CCC3=O)CC2)cc2sccc21)c1cccc(C)c1` [JRW-0520, 2,5-dioxopyrrolidin-1-yl 1-(trans-4-(4-(2-(ethyl(m-tolyl)amino)-2-oxoethyl)-4H-thieno[3,2-b]pyrrole-5-carboxamido)cyclohexyl)-1,8-dioxo-12,15-dioxa-2,9-diazaoctadecan-18-oate]: the IC50 was 0.094 µM.

Consider `CCN(C(=O)Cn1c(C(=O)N[C@H]2CC[C@H](C(=O)NCCCCCC(=O)NCCOCCOCCOCCC(=O)ON3C(=O)CCC3=O)CC2)cc2sccc21)c1cccc(C)c1` [JRW-0525], for which the IC50 stood at 0.084 µM.

In turn, `CCN(C(=O)Cn1c(C(=O)N[C@H]2CC[C@H](C(=O)NCCCCCC(=O)NCCOCCOCCOCCOCCC(=O)ON3C(=O)CCC3=O)CC2)cc2sccc21)c1cccc(C)c1` [JRW-0533] came in with an IC50 of 0.092 µM.

With `CCN(C(=O)Cn1c(C(=O)N[C@H]2CC[C@H](C(=O)NCCCCCCNC(=O)CCOCCOCCNC(=O)CCN3C(=O)C=CC3=O)CC2)cc2sccc21)c1cccc(C)c1` [JRW-0559], half-maximal inhibition (IC50) was put at 0.033 µM.

The compound `CCc1cccc(N(CC)C(=O)Cn2c(C(=O)N[C@H]3CC[C@H](C(=O)NCCCCCCCC(=O)OC)CC3)cc3ccccc32)c1` [JRW-0597, methyl 8-(trans-4-(1-(2-(ethyl(3-ethylphenyl)amino)-2-oxoethyl)-1H-indole-2-carboxamido)cyclohexane-1-carboxamido)octanoate] came in with an IC50 of 0.00016 µM.

On to `CCc1cccc(N(CC)C(=O)Cn2c(C(=O)N[C@H]3CC[C@H](C(=O)NCCCCCCCC(=O)Oc4ccccc4)CC3)cc3ccccc32)c1` [JRW-0605, phenyl 8-(trans-4-(1-(2-(ethyl(3-ethylphenyl)amino)-2-oxoethyl)-1H-indole-2-carboxamido)cyclohexane-1-carboxamido)octanoate], for which half-maximal inhibition (IC50) was put at 0.00012 µM.

On to `CCc1cccc(N(CC)C(=O)Cn2c(C(=O)N[C@H]3CC[C@H](C(=O)NCCCCCCI)CC3)cc3ccccc32)c1` [JRW-0622, 1-(2-(ethyl(3-ethylphenyl)amino)-2-oxoethyl)-N-(trans-4-((6-iodohexyl)carbamoyl)cyclohexyl)-1H-indole-2-carboxamide], for which the midpoint of inhibition, the IC50, lay at 0.00014 µM.

Compound `CCc1cccc(N(CC)C(=O)Cn2c(C(=O)N[C@H]3CC[C@H](C(=O)NCCCCCCBr)CC3)cc3ccccc32)c1` [JRW-0626, N-(trans-4-((6-bromohexyl)carbamoyl)cyclohexyl)-1-(2-(ethyl(3-ethylphenyl)amino)-2-oxoethyl)-1H-indole-2-carboxamide] came in with an IC50 of 0.0002 µM.

Compound `CCc1cccc(N(CC)C(=O)Cn2c(C(=O)N[C@H]3CC[C@H](C(=O)NCCCCCCNC(=O)c4ccc5c(c4)C(=O)OC54c5ccc(O)cc5Oc5cc(O)ccc54)CC3)cc3ccccc32)c1` [JRW-0818, N-(trans-4-((6-(3′,6′-dihydroxy-3-oxo-3H-spiro[isobenzofuran-1,9′-xanthene]-5-carboxamido)hexyl)carbamoyl)cyclohexyl)-1-(2-(ethyl(3-ethylphenyl)amino)-2-oxoethyl)-1H-indole-2-carboxamide] yielded an IC50 of 0.0012 µM.

With `CCc1cccc(N(CC)C(=O)Cn2c(C(=O)N[C@H]3CC[C@H](C(=O)NCCCCCCNC(=O)c4ccc5c(c4)C4(OC5=O)c5ccc(N(C)C)cc5Oc5cc(N(C)C)ccc54)CC3)cc3ccccc32)c1` [JRW-822, N-(trans-4-((6-(3′,6′-bis(dimethylamino)-3-oxo-3H-spiro[isobenzofuran-1,9′-xanthene]-6-carboxamido)hexyl)carbamoyl)cyclohexyl)-1-(2-(ethyl(3-ethylphenyl)amino)-2-oxoethyl)-1H-indole-2-carboxamide], half-maximal inhibition (IC50) was put at 0.0033 µM.

For `CCN(C(=O)Cn1c(C(=O)N[C@H]2CC[C@H](C(=O)NCCCCCCNC(=O)c3ccc4c(c3)C3(OC4=O)c4ccc(N(C)C)cc4Oc4cc(N(C)C)ccc43)CC2)cc2sccc21)c1cccc(C)c1` [JRW-0824], the IC50 turned out to be 0.18 µM.

`CCc1cccc(N(CC)C(=O)Cn2c(C(=O)N[C@H]3CC[C@H](C(=O)NCCCCCCNC(=O)CCc4ccc5n4[B-](F)(F)[N+]4=C(C)C=C(C)C4=C5)CC3)cc3ccccc32)c1` [JRW-0827, N-(trans-4-((6-(3-(5,5-difluoro-7,9-dimethyl-5H-514,614-dipyrrolo[1,2-c:2′,1′-f][1,3,2]diazaborinin-3-yl)propanamido)hexyl)carbamoyl)cyclohexyl)-1-(2-(ethyl(3-ethylphenyl)amino)-2-oxoethyl)-1H-indole-2-carboxamide] registered an IC50 of 0.0027 µM.

`CCN(C(=O)Cn1c(C(=O)N[C@H]2CC[C@H](C(=O)NCCCCCCNC(=O)CCc3ccc4n3[B-](F)(F)[N+]3=C(C)C=C(C)C3=C4)CC2)cc2sccc21)c1cccc(C)c1` [JRW-0829, N-(trans-4-((6-(3-(5,5-difluoro-7,9-dimethyl-5H-514,614-dipyrrolo[1,2-c:2′,1′-f][1,3,2]diazaborinin-3-yl)propanamido)hexyl)carbamoyl)cyclohexyl)-4-(2-(ethyl(m-tolyl)amino)-2-oxoethyl)-4H-thieno[3,2-b]pyrrole-5-carboxamide] returned an IC50 of 0.48 µM.

With `CCN(C(=O)Cn1c(C(=O)N[C@H]2CC[C@H](C(=O)NCCCCCCCC(=O)ON3C(=O)CC(S(=O)(=O)O)C3=O)CC2)cc2sccc21)c1cccc(C)c1` (stereo partly drawn) [JRW-0830, sodium 1-((8-(trans-4-(4-(2-(ethyl(m-tolyl)amino)-2-oxoethyl)-4H-thieno[3,2-b]pyrrole-5-carboxamido)cyclohexane-1-carboxamido)octanoyl)oxy)-2,5-dioxopyrrolidine-3-sulfonate], it took 0.0042 µM to reach half-maximal inhibition (IC50).

On to `CCN(C(=O)Cn1c(C(=O)N[C@H]2CC[C@H](C(=O)NCCCCCCCC(=O)Oc3ccc(F)cc3)CC2)cc2sccc21)c1cccc(C)c1` [JRW-0831], for which the IC50 is 0.32 µM.

`CCN(C(=O)Cn1c(C(=O)N[C@H]2CC[C@H](C(=O)NCCCCCCCC(=O)Oc3cc(F)cc(F)c3)CC2)cc2sccc21)c1cccc(C)c1` [JRW-0833, 3,5-difluorophenyl 8-(trans-4-(4-(2-(ethyl(m-tolyl)amino)-2-oxoethyl)-4H-thieno[3,2-b]pyrrole-5-carboxamido)cyclohexane-1-carboxamido)octanoate] showed an IC50 of 0.02 µM.

Turning to `CCN(C(=O)Cn1c(C(=O)N[C@H]2CC[C@H](C(=O)NCCCCCCCC(=O)Oc3ccc(C#N)cc3)CC2)cc2sccc21)c1cccc(C)c1` [JRW-0834, 4-cyanophenyl 8-(trans-4-(4-(2-(ethyl(m-tolyl)amino)-2-oxoethyl)-4H-thieno[3,2-b]pyrrole-5-carboxamido)cyclohexane-1-carboxamido)octanoate], half-maximal inhibition (IC50) was put at 0.0033 µM.

As to `CCN(C(=O)Cn1c(C(=O)N[C@H]2CC[C@H](C(=O)NCCCCCNC(=O)CCl)CC2)cc2sccc21)c1cccc(C)c1` [JRW-0844, N-(trans-4-((5-(2-chloroacetamido)pentyl)carbamoyl)cyclohexyl)-4-(2-(ethyl(m-tolyl)amino)-2-oxoethyl)-4H-thieno[3,2-b]pyrrole-5-carboxamide], the midpoint of inhibition, the IC50, lay at 0.041 µM.

Consider `CCN(C(=O)Cn1c(C(=O)N[C@H]2CC[C@H](C(=O)NCCCCCCNC(=O)CCl)CC2)cc2sccc21)c1cccc(C)c1` [JRW-0846, N-(trans-4-((6-(2-chloroacetamido)hexyl)carbamoyl)cyclohexyl)-4-(2-(ethyl(m-tolyl)amino)-2-oxoethyl)-4H-thieno[3,2-b]pyrrole-5-carboxamide], for which 0.016 µM corresponded to half-maximal inhibition (IC50).

The compound `CCN(C(=O)Cn1c(C(=O)N[C@H]2CC[C@H](C(=O)NCCCCCCCC(=O)Oc3c(F)c(F)cc(F)c3F)CC2)cc2sccc21)c1cccc(C)c1` [JRW-0847] yielded an IC50 of 0.0003 µM.

With `CCN(C(=O)Cn1c(C(=O)N[C@H]2CC[C@H](C(=O)NCCCCCNC(=O)CBr)CC2)cc2sccc21)c1cccc(C)c1` [JRW-0870, N-(trans-4-((5-(2-bromoacetamido)pentyl)carbamoyl)cyclohexyl)-4-(2-(ethyl(m-tolyl)amino)-2-oxoethyl)-4H-thieno[3,2-b]pyrrole-5-carboxamide], the half-inhibitory concentration (IC50) was 0.042 µM.

As for `CCc1cccc(N(CC)C(=O)Cn2c(C(=O)N[C@H]3CC[C@H](C(=O)NCCCCCCCCNC(=O)c4ccc5c(c4)C(=O)OC54c5ccc(O)cc5Oc5cc(O)ccc54)CC3)cc3ccccc32)c1` [JRW-0882, N-(trans-4-((8-(3′,6′-dihydroxy-3-oxo-3H-spiro[isobenzofuran-1,9′-xanthene]-5-carboxamido)octyl)carbamoyl)cyclohexyl)-1-(2-(ethyl(3-ethylphenyl)amino)-2-oxoethyl)-1H-indole-2-carboxamide], the IC50 was determined as 0.0011 µM.

The experiment is the same for the next values; noted with them: 0.4 ng/ml NANOLUC in CO2 independent media+10% FBS; final furimazine 10 μM; no pre-incubation noted; read-out: IC50.
For `CCN(C(=O)Cn1c(C(=O)N[C@H]2CC[C@H](C(=O)NCCCCCCNC(=O)c3ccc4c(c3)C3(OC4=O)c4ccc(N)cc4Oc4cc(N)ccc43)CC2)cc2sccc21)c1cccc(C)c1` [JRW-0863], the IC50 turned out to be 0.036 µM.
